Results taken from patent US10351500B2, “Method of using of dihydro-resveratrol or its stilbenoid derivatives and/or chemical variants as antimicrobial agents” (Hong Kong Baptist University, priority 2015, dated 2019).

Key:
[1] = system: cerulein-induced acute pancreatitis and associated pulmonary injury; assay: cerulein-induced acute pancreatitis in rats, oral dihydro-resveratrol; type: in vivo, Sprague-Dawley rats
Text: Among the several established animal models, repetitive intraperitoneal (i.p.) injection of cholecystokinin secretagogue, cerulein, is the most widely used and a highly reproducible method for the production of an experimental acute pancreatitis. Followed by a single shot of lipopolysaccharide (LPS), pulmonary injury characterized by neutrophil sequestration in the lung tissues and increased permeability of the alveolar membrane barrier is often observed as an acute pancreatitis associated complication. For the diagnosis of the onset of acute pancreatitis, bulky leakage of digestive enzymes, namely α-amylase, into the bloodstream is regarded as the principal pathological parameter. For evaluating the severity of acute pancreatitis and the associated pulmonary injury, morphological alterations of organ architecture including interstitial edema, cellular damage, leukocyte infiltration and hemorrhage are characterized as the histological and/or pathological parameters. Besides histological examination, aberrant MPO activity is often measured for assessing the severity of neutrophil-mediated inflammatory condition. Both the local and systemic inflammatory responses can be further confirmed by the high levels of pro-inflammatory cytokines present in the homogenates of affected tissues. Moreover, glutathione depletion, a defense mechanism, is one of the most common parameters for assessing the severity of tissue injury.
Evaluation of biological activities. Sprague-Dawley rats aged 28 days weighing in the range of 70 to 90 g were randomly assigned into 6 groups of 6 to 8 individuals. The rats were housed with an ambient temperature of 23±2° C., a relative humidity of 60 to 80% and a 12-h light/dark cycle. Prior to the experiment, the rats were starved overnight but allowed with free access to water. Experimental acute pancreatitis was induced in the rats by six hourly i.p. injections of cerulein at the supramaximally stimulating dose (50 μg/kg) followed by a single dose of LPS at 7.5 mg/kg 1 h after the last cerulein injection, and this group of rats was designated as the cerulein group. The control group received injections of 0.9% saline instead of cerulein in the same volume and at same time intervals. The treatment groups given with cerulein and oral doses of dihydro-resveratrol (10, 20 or 50 mg/kg) were designated as Cerulein+D-res 10 or 20 or 50 mg/kg. The therapeutic intervention was given 30 minutes after the first cerulein injection for three consecutive hours. Upon scarification, pancreata were immediately removed, weighed, trimmed from fat and fixed in 4% paraformaldehyde-phosphate buffered saline overnight at 4° C. Samples were then processed, embedded in paraffin wax, sectioned and subjected to H&E staining. Levels of TNF-α in pancreatic and pulmonary samples were determined using commercial ELISA kits. Tissue homogenates were subjected to biochemical assays for the evaluation of MPO activity and glutathione content.

[2] = system: human melanoma A375 cell line; assay: MTT cell viability assay, A375; type: cell-based; conditions: A-375, 24 h
Experimental: (§1) The human colorectal carcinoma HCT-116 cell line, human pancreatic ductal adenocarcinoma PANC-1 cell line, human melanoma A375 cell line and human embryonic kidney HEK293 cell line were purchased from the American Type Culture Collection. Cells were cultured in high glucose DMEM growth medium supplemented with 10% fetal bovine serum, penicillin and streptomycin (100 U) in a humidified atmosphere of 5% CO2, 95% air at 37° C. Upon the addition of dihydro-resveratrol (D-res) to the HCT-116, PANC-1, A375 or HEK293 cells seeded at a density of 8000 cells per well in a 96-well plate format, the viability of the testing cells was determined 24 h post treatment using the (3-(4,5-dimethylthiazol-2-yl)-2,5-diphenyltetrazolium bromide) tetrazolium (MTT) reduction assay and expressed as growth inhibition of 50% (GI50, Table 6).

[3] = system: human pancreatic ductal adenocarcinoma PANC-1 cell line; assay: MTT cell viability assay, PANC-1; type: cell-based; conditions: PANC-1 pancreatic ductal adenocarcinoma, 24 h
Experimental: as §1

[4] = system: A375 human melanoma cells; assay: cell migration assay, A375; type: cell-based; conditions: A375, 25 μM, 24-h treatment
[5] = system: HCT-116 human colorectal carcinoma xenograft tumor; assay: HCT-116 nude mouse xenograft model; type: in vivo, BALB/c nude mice; conditions: for Body weight: tumor-bearing nude mice, D-res 100 mg/kg i.p.
Text: All animal studies were approved and performed according to Animal Care and Use Guidelines of the Animal Ethics Committee at Hong Kong Baptist University. BALB/c nude mice, SPF class, male, 6-8 weeks old, were purchased from BioLASCO, Taiwan. Before the xenograft experiment, the mice were acclimatized to SPF class laboratory conditions for a week.
HCT-116 cells in logarithmic growth phase were collected by trypsinization. After centrifugation and rinsing, cells were re-suspended in serum-free DMEM medium at 3×10^7 cells/mL. Nude mice were skin disinfected with 75% medical ethanol, subcutaneously injected with 100 μL of the HCT-116 cell suspension using a 25-G syringe to their left flank. The same procedure was repeated for the tumor cell injection to the right flank.
Seven days after tumor cell injection, 24 mice with tumor volumes of 32 mm^3 to 178 mm^3 were randomly assigned into 3 groups; the average initial tumor volumes in each group of mice were 78.04±7.76 mm^3 (vehicle, 8 mice), 78.76±9.40 mm^3 (5-FU, 8 mice), 78.01±7.75 mm^3 (D-res, 8 mice) respectively.
Vehicle solution: 2.5% Ethanol and Cremphor EL (1:1 v/v) dissolved in physiological saline.
5-FU solution: 5-FU powder was dissolved in 2.5% Ethanol and Cremphor EL to a concentration of 5 mg/mL.
D-res solution: Dihydro-resveratrol powder was dissolved in 2.5% Ethanol and Cremphor EL solution to a concentration of 20 mg/mL.
Vehicle group (n=8): 2.5% Ethanol and Cremphor EL solution was intraperitoneally injected every other day for 21 days.
5-FU group (n=8): 5-FU solution was given to mice at 25 mg/kg by intraperitoneal injection every other day for 21 days.
D-res group (n=8): D-res solution was given to mice at 100 mg/kg by intraperitoneal injection every other day for 21 days. This is equivalent to a dosage of no less than 8.13 mg/kg of bodily weight in human.

[6] = 21-day administration, 100 mg/kg i.p.

Compound: Oc1ccc(CCc2cc(O)cc(O)c2)cc1 [Dihydro-resveratrol, trans-3,5,4′-trihydroxybibenzyl]
- Plasma α-amylase activities (mean) ([1]; Cerulein + D-Res 10 mg (oral 10 mg/kg)): 0.2891 U/μl/minute
- Plasma α-amylase activities (mean) ([1]; Cerulein + D-Res 20 mg (oral 20 mg/kg), #p<0.05 vs cerulein group): 0.2498# U/μl/minute
- Plasma α-amylase activities (mean) ([1]; Cerulein + D-Res 50 mg (oral 50 mg/kg), #p<0.05 vs cerulein group): 0.2431# U/μl/minute
- MPO activities in pancreatic and pulmonary tissues ([1]; oral): significantly reduced
- ameliorative effect on reducing pancreatic edema compared with trans-resveratrol ([1]; oral): more promising than that of trans-resveratrol
- glutathione level in cerulein-induced pancreata ([1]; oral): significantly suppressed glutathione depletion
- levels of TNF-α in pancreatic and pulmonary tissues ([1]; oral, ELISA): significantly reduced
- focal expansion of interlobular septae, cytoplasmic shrinkage and leukocyte infiltration in pancreatic parenchyma ([1]; oral, H&E): remarkably reduced
- pulmonary wall thickening and hemorrhage in lung tissues ([1]; oral, H&E): significantly improved
- pancreatic edema (weight ratio of pancreas to body) ([1]; oral, not less than 20 mg/kg): notably reduced the pancreatic edema
- GI50 [2]: 107 ± 3.37 µM
- GI50 [3]: 116 ± 3.09 µM
- migratory ability [4]: significant reduction in the migratory ability
- effect on body weight of the nude mice [5, 6]: did not lead to a notable reduction in body weight
- growth of xenograft tumor (size, volume, weight) compared to 5-FU [5, 6]: more sufficiently restrained
- Tumor Volume (mm^3) ([5]; Day 1 (initial), i.p. every other day, 5-FU 25 mg/kg, D-res 100 mg/kg): 78.01 ± 7.75 mm^3
- Body weight ([5]; Day 1, 5-FU 25 mg/kg): 20.69 ± 0.55 g
- Tumor Volume (mm^3) ([5]; Day 4, i.p. every other day, 5-FU 25 mg/kg, D-res 100 mg/kg): 137.54 ± 14.69 mm^3
- Body weight ([5]; Day 4, 5-FU 25 mg/kg): 20.76 ± 0.65 g
- Tumor Volume (mm^3) ([5]; Day 7, i.p. every other day, 5-FU 25 mg/kg, D-res 100 mg/kg): 167.58 ± 22.65 mm^3
- Body weight ([5]; Day 7, 5-FU 25 mg/kg): 20.33 ± 0.9 g
- Tumor Volume (mm^3) ([5]; Day 10, i.p. every other day, 5-FU 25 mg/kg, D-res 100 mg/kg): 273.28 ± 41.5 mm^3
- Body weight ([5]; Day 10, 5-FU 25 mg/kg): 20.57 ± 0.66 g
- Tumor Volume (mm^3) ([5]; Day 13, i.p. every other day, 5-FU 25 mg/kg, D-res 100 mg/kg): 355.48 ± 78.57 mm^3
- Body weight ([5]; Day 13, 5-FU 25 mg/kg): 20.53 ± 0.82 g
- Tumor Volume (mm^3) ([5]; Day 16, i.p. every other day, 5-FU 25 mg/kg, D-res 100 mg/kg): 409.35 ± 74.3 mm^3
- Body weight ([5]; Day 16, 5-FU 25 mg/kg): 20.31 ± 0.88 g
- Tumor Volume (mm^3) ([5]; Day 19, i.p. every other day, 5-FU 25 mg/kg, D-res 100 mg/kg): 585.98 ± 110.96 mm^3
- Body weight ([5]; Day 19, 5-FU 25 mg/kg): 20.51 ± 0.87 g
- Tumor Volume (mm^3) ([5]; Day 21, i.p. every other day, 5-FU 25 mg/kg, D-res 100 mg/kg): 559.76 ± 100.63 mm^3
- Body weight ([5]; Day 21, 5-FU 25 mg/kg): 18.79 ± 0.59 g
- Tumor Volume (mm^3) ([5]; Day 22, i.p. every other day, 5-FU 25 mg/kg, D-res 100 mg/kg): 586.92 ± 88.51 mm^3
- Body weight ([5]; Day 22, 5-FU 25 mg/kg): 20.63 ± 0.99 g
- Tumor weight ([5]; treated for 21 days, i.p. every other day, 5-FU 25 mg/kg, D-res 100 mg/kg): 0.60 ± 0.11 g
